Measurements: patent US4756710A, “pH-Mediated drug delivery system” (Merck & Co., Inc., priority 1986, dated 1988)
Converted amounts (≈) assume the structure as drawn. Structures can show the parent of a compound that is named as a salt. Where two headings read alike, the source gives them in different places.

Tests used:
[1] = from equation (1); 30 percent ethanol/water; polyurethane membrane 0.0038 cm
[2] = in water at 25° C.; reported; cited from earlier work
[3] = Solubility in mineral oil; type: physicochemical
[4] = Solubility of timolol maleate in pH controlled glycol reservoir vehicles; type: physicochemical
[5] = type: physicochemical; conditions: not told
Procedure: Several pH controlled reservoir systems were prepared in a similar manner employing non-aqueous or aqueous glycol vehicles and different buffering agents. For this example, sorbitol USP and 70 percent aqueous propylene glycol were employed. The pH was adjusted with either Na2 HPO4 or Na2 CO3. pH measurements were made on a pH meter with a standard glass electrode and the flux determined in a diffusion cell employing a mineral oil soaked Celgard membrane to separate the buffered reservoir from the receptor phase.

[6] = From the text: The following operation illustrates with timolol the relationship among pH, the concentration C, of the timolol base in solution in the reservoir, and the flux calculated from the data as well as the observed flux obtained by placing the compositions behind the selected membrane in a diffusion cell and measuring the rate of release into an isotonic phosphate buffer of pH 7.4.
As a first step in determining the relationship between pH, concentration of timolol, its pK and the pH of the reservoir, an aqueous solution of 7.0 mg/ml of timolol was placed in a diffusion measuring cell fitted with a 1.5 mil (0.0038 cm) thick silicone membrane and the transport of timolol from the reservoir of the test cell to an isotonic pH 7.4 receptor phase was measured over a period of about eight hours by sampling the solution in the receptor phase, assaying this solution for drug by direct ultraviolet assay method and calculating the drug concentration over time, thereafter plotting the drug diffused per square centimeter versus time and calculating the regression line.
From the calculated concentration of the timolol base, the previously determined values for D and K and the known thickness of the membrane, the steady state flux was calculated (equation (1)). Thereafter, the steady state flux was determined experimentally by measuring the transport of timolol at each pH from the buffer system into an isotonic receptor phase through the silicone membrane.

[7] = Concentration of timolol base in aqueous buffer solutions calculated with the Henderson-Hasselbalch equation; type: physicochemical; conditions: pH 9.0; 15 mg/ml timolol maleate in aqueous buffer
From the text: where T is the time lag. Thus, after determining T, D may be calculated. By experimentally determining flux, and substituting in equation (1), K may be obtained. Having thus determined K and D, the desired flux may be achieved by making appropriate modifications of the pH, thereby the concentration, and/or the thickness of the membrane. The appropriate modifications in pH may be arrived at by preparing a series of buffer solutions containing a known quantity of the salt form of drug at various pH values and substituting in the Henderson-Hasselbalch equation, [formula] C, the concentration of the unionized form, may be calculated.

CC1=C(CC(=O)O)c2cc(F)ccc2/C1=C\c1ccc([S+](C)[O-])cc1 (centres unmarked) [sulindac]
product KD [1]: 9.38×10^-4 cm^2 /hr | pKa [2]: 4.7

CC(C)(C)NC[C@H](O)COc1nsnc1N1CCOCC1 [timolol maleate]
solubility in mineral oil [3]: substantially insoluble | solubility ([4]; 70% propylene glycol + na2co3, organic solvent or mixture, 70% Propylene glycol +Na2 CO3, apparent pH 7.6): 124 mg/mL | solubility ([4]; sorbitol usp + na2co3, Sorbitol USP +Na2 CO3, apparent pH 9.6): 0.7 mg/mL | solubility ([4]; sorbitol usp + na2hpo4, Sorbitol USP +Na2 HPO4, apparent pH 6.9): 17.2 mg/mL | Jobs (flux) ([5]; pH 6.9): 6.7 mcg/cm^2 /hr | Jobs (flux) ([5]; pH 7.6): 7.4 mcg/cm^2 /hr | Jobs (flux) ([5]; pH 9.6): 2.8 mcg/cm^2 /hr

CC(C)(C)NC[C@H](O)COc1nsnc1N1CCOCC1 [timolol]
partition coefficient between drug reservoir and membrane, K [6]: 2.05 | time lag, T ([6]; aqueous solution of 7.0 mg/ml timolol, 1.5 mil silicone membrane, plot extrapolated to time axis): 0.0096 h | drug diffusion coefficient in the membrane, D ([6]; silicone membrane, from equations (1) and (2)): 2.5×10^-4 cm^2 /hr | Cs Timolol Base [7]: 4210 µg/mL | solubility ([3]; organic solvent or mixture, 32° C.): ~7000 µg/mL (≈ 22.1 mM)
